From the supplement of paper PMC10307832

Assays:
Experiment in all cases: relative viability (nuclei count vs DMSO), 5 days (fraction); higher = more cells survive
[1] = compound: CCN(CCO)CCCC(C)Nc1ccnc2cc(Cl)ccc12 [Hydroxychloroquine] + Nc1nc2[nH]cc(CCc3ccc(C(=O)N[C@@H](CCC(=O)O)C(=O)O)cc3)c2c(=O)[nH]1 [Pemetrexed] (partner 0.2 µM)
Outline: (§1)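 After 5 days of treatment, lung cancer cells in 1536-well plates were fixed and stained in a single step (final 0.05% Triton X-100, 1% formaldehyde, 1 ug/ml Hoechst) and their nuclei counted on 4× images. Treatment had been applied by pin tool the day after seeding as one drug alone or as a fixed anchor-drug dose with five library-drug doses (not always all listed) in √10 steps. Relative viability is the nuclei count of treated wells divided by that of vehicle wells, and values are medians of duplicate plates.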

[2] = compound: CCN(CCO)CCCC(C)Nc1ccnc2cc(Cl)ccc12 [Hydroxychloroquine] + NC(=O)Nc1cc(-c2cccc(F)c2)sc1C(=O)N[C@H]1CCCNC1 [AZD7762] (partner 0.2 µM)
Outline: as §1

[3] = compound: CCN(CCO)CCCC(C)Nc1ccnc2cc(Cl)ccc12 [Hydroxychloroquine] + COc1cc2c(Oc3ccc(NC(=O)C4(C(=O)Nc5ccc(F)cc5)CC4)cc3F)ccnc2cc1OCCCN1CCOCC1 [Foretinib] (partner 0.25 µM)
Outline: as §1

[4] = compound: CCN(CCO)CCCC(C)Nc1ccnc2cc(Cl)ccc12 [Hydroxychloroquine] + COc1cccc2cc(-c3nc([C@H]4CC[C@H](C(=O)O)CC4)n4ncnc(N)c34)[nH]c12 [OSI-027] (partner 0.5 µM)
Outline: as §1

| Cell Line | relative viability ([1]; first compound 0.5 µM) | relative viability ([1]; first compound 1.581 µM) | relative viability ([1]; first compound 5 µM) | relative viability ([1]; first compound 15.81 µM) | relative viability ([1]; first compound 50 µM) | relative viability ([2]; first compound 0.5 µM) | relative viability ([2]; first compound 1.581 µM) | relative viability ([2]; first compound 5 µM) | relative viability ([2]; first compound 15.81 µM) | relative viability ([2]; first compound 50 µM) | relative viability ([3]; first compound 0.5 µM) | relative viability ([3]; first compound 1.581 µM) | relative viability ([3]; first compound 5 µM) | relative viability ([3]; first compound 15.81 µM) | relative viability ([3]; first compound 50 µM) | relative viability ([4]; first compound 0.5 µM) | relative viability ([4]; first compound 1.581 µM) | relative viability ([4]; first compound 5 µM) | relative viability ([4]; first compound 15.81 µM) | relative viability ([4]; first compound 50 µM) |
| --- | --- | --- | --- | --- | --- | --- | --- | --- | --- | --- | --- | --- | --- | --- | --- | --- | --- | --- | --- | --- |
| A-427 | 0.948 | 1.05 | 0.926 | 0.838 | 1.01 | 0.727 | 0.802 | 0.769 | 0.696 | 0.671 | 1.05 | 1.09 | 0.974 | 1.15 | 1.16 | 0.486 | 0.308 | 0.387 | 0.412 | 0.424 |
| H3255 | 0.566 | 0.603 | 0.543 | 0.586 | 0.477 | 0.857 | 0.897 | 0.875 | 0.882 | 0.891 | 0.924 | 0.84 | 0.818 | 0.783 | 0.798 | 0.653 | 0.524 | 0.569 | 0.6 | 0.665 |
| NCI-H1734 | 0.46 | 0.398 | 0.408 | 0.427 | 0.427 | 0.62 | 0.562 | 0.649 | 0.644 | 0.622 | 0.893 | 0.864 | 0.864 | 0.784 | 0.866 | 0.555 | 0.526 | 0.581 | 0.606 | 0.677 |
| NCI-H1993 | 0.577 | 0.507 | 0.623 | 0.601 | 0.597 | 0.699 | 0.597 | 0.927 | 0.79 | 0.817 | 0.867 | 0.711 | 0.735 | 0.887 | 0.79 | 0.546 | 0.563 | 0.558 | 0.555 | 0.541 |
| NCI-H1437 | 0.326 | 0.314 | 0.324 | 0.33 | 0.321 | 1.13 | 1.15 | 1.08 | 1.14 | 1.14 | 1.26 | 1.26 | 1.33 | 1.31 | 1.28 | 0.813 | 1.02 | 0.859 | 0.949 | 0.909 |
| NCI-H441 | 0.234 | 0.258 | 0.284 | 0.227 | 0.278 | 1.16 | 1.47 | 1.25 | 1.5 | 1.11 | 0.919 | 1.07 | 1.02 | 1.02 | 0.861 | 0.749 | 0.443 | 0.579 | 0.669 | 0.584 |
| 201T | 0.346 | 0.331 | 0.338 | 0.307 | 0.339 | 0.571 | 0.809 | 0.759 | 0.59 | 0.658 | 1.21 | 1.05 | 1.03 | 1.2 | 1.2 | 0.731 | 0.738 | 0.721 | 0.827 | 0.965 |
| NCI-H358 | 0.164 | 0.166 | 0.179 | 0.161 | 0.179 | 0.498 | 0.566 | 0.534 | 0.436 | 0.442 | 0.639 | 0.628 | 0.643 | 0.593 | 0.827 | 0.666 | 0.616 | 0.783 | 0.83 | 0.991 |
| ChaGo-K-1 | 0.417 | 0.259 | 0.291 | 0.262 | 0.276 | 0.775 | 0.88 | 0.821 | 0.901 | 0.998 | 0.939 | 1.04 | 0.929 | 0.911 | 1.04 | 0.688 | 0.675 | 0.498 | 0.53 | 0.609 |
| LOU-NH91 | 0.359 | 0.413 | 0.451 | 0.386 | 0.427 | 0.762 | 0.646 | 0.776 | 0.744 | 0.828 | 0.921 | 0.831 | 0.949 | 0.94 | 0.914 | 0.667 | 0.616 | 0.758 | 0.701 | 0.736 |
| HOP-62 | 0.331 | 0.312 | 0.33 | 0.344 | 0.343 | 0.448 | 0.968 | 0.661 | 0.626 | 0.732 | 1.15 | 1.24 | 1.14 | 1.27 | 1.23 | 0.877 | 0.892 | 0.843 | 0.825 | 0.767 |
| NCI-H1915 | 0.531 | 0.514 | 0.505 | 0.524 | 0.521 | 0.65 | 0.742 | 0.731 | 0.711 | 0.707 | 1.07 | 1.11 | 1.15 | 1.1 | 1.12 | 0.648 | 0.53 | 0.599 | 0.583 | 0.685 |
| NCI-H3122 | 0.189 | 0.205 | 0.359 | 0.188 | 0.199 | 0.956 | 0.976 | 1.06 | 0.993 | 1.13 | 0.92 | 0.934 | 0.945 | 0.985 | 1.03 | 1.05 | 0.962 | 1.12 | 1.2 | 1.18 |
| NCI-H1651 | 0.628 | 0.626 | 0.602 | 0.597 | 0.449 | 0.501 | 0.585 | 0.47 | 0.451 | 0.457 | 0.934 | 0.762 | 0.865 | 0.925 | 0.88 | 0.659 | 0.69 | 0.677 | 0.786 | 0.781 |
| PC-14 | 0.149 | 0.145 | 0.118 | 0.142 | 0.129 | 0.3 | 0.459 | 0.31 | 0.302 | 0.406 | 0.909 | 0.987 | 1.01 | 0.972 | 0.962 | 0.958 | 0.586 | 0.872 | 0.861 | 0.927 |
| NCI-H647 | 0.186 | 0.176 | 0.202 | 0.196 | 0.182 | 0.542 | 0.455 | 0.423 | 0.252 | 0.373 | 1.25 | 1.16 | 1.18 | 1.39 | 1.25 | 0.703 | 0.737 | 0.683 | 0.893 | 0.607 |
| NCI-H460 | 0.0632 | 0.055 | 0.0674 | 0.0549 | 0.0607 | 0.727 | 0.645 | 0.63 | 0.749 | 0.615 | 1.01 | 0.995 | 1.08 | 1.04 | 1.25 | 0.621 | 0.649 | 0.569 | 0.672 | 0.847 |
| NCI-H1355 | 1.11 | 0.997 | 0.906 | 1.05 | 1.14 | 0.747 | 0.795 | 0.679 | 0.72 | 0.81 | 0.941 | 0.965 | 0.956 | 1.02 | 0.979 | 0.509 | 0.301 | 0.371 | 0.332 | 0.44 |
| NCI-H2347 | 0.481 | 0.401 | 0.444 | 0.413 | 0.452 | 0.657 | 0.692 | 0.806 | 0.701 | 0.882 | 0.936 | 0.663 | 0.885 | – | 0.683 | 0.528 | 0.356 | 0.387 | 0.322 | 0.336 |
| LCLC-97TM1 | 0.199 | 0.226 | 0.169 | 0.179 | 0.175 | 0.373 | 0.499 | 0.245 | 0.119 | 0.363 | 0.989 | 0.934 | 0.979 | 0.983 | 1.01 | 0.614 | 0.465 | 0.569 | 0.563 | 0.622 |
| EMC-BAC-2 | 0.49 | 0.439 | 0.434 | 0.313 | 0.411 | 1.12 | 0.887 | 1.01 | 1.07 | 1.11 | 0.998 | 0.877 | 1.08 | 0.941 | 0.985 | 0.376 | 0.324 | 0.381 | 0.368 | 0.365 |
| NCI-H1975 | 0.281 | 0.325 | 0.309 | 0.297 | 0.301 | 0.679 | 0.659 | 0.752 | 0.698 | 0.754 | 0.942 | 0.866 | 0.988 | 1.05 | 0.97 | 0.846 | 0.74 | 0.711 | 0.868 | 0.991 |
| BEN | 0.928 | 0.719 | 0.733 | 0.855 | 0.684 | 0.795 | 0.652 | 0.767 | 0.776 | 0.759 | 0.647 | 0.634 | 0.588 | 0.567 | 0.577 | 0.319 | 0.284 | 0.268 | 0.373 | 0.325 |
| NCI-H23 | 1.21 | 0.663 | 0.609 | 0.56 | 0.74 | 0.263 | 0.355 | 0.21 | 0.271 | 0.248 | 1.04 | 0.968 | 0.979 | 0.99 | 0.903 | 0.684 | 0.447 | 0.572 | 0.535 | 0.572 |
| NCI-H596 | 0.547 | 0.481 | 0.45 | 0.479 | 0.489 | 0.924 | 0.902 | 1.14 | 1.11 | 1.05 | 0.758 | 0.669 | 0.875 | 0.823 | 0.855 | 0.755 | 0.672 | 0.625 | 0.761 | 0.883 |
| CAL-12T | 1.15 | 1.18 | 1.31 | 1.27 | 1.33 | 0.571 | 0.804 | 0.596 | 0.599 | 0.659 | 0.974 | 1.04 | 1.04 | 1.33 | 1.06 | 0.97 | 0.8 | 0.633 | 0.684 | 0.687 |
| EPLC-272H | – | 0.331 | 0.325 | 0.341 | 0.352 | 0.168 | 0.207 | 0.214 | 0.232 | 0.193 | 0.776 | 0.673 | 0.709 | 0.703 | 0.799 | 0.249 | 0.232 | 0.276 | 0.252 | 0.314 |
